Assay results reported in patent publication US6593357B1, “Pyrazole compositions useful as inhibitors of ERK” (Vertex Pharmaceuticals Incorporated, priority 2000, dated 2003).

Tests used:
Aurora2 = target: T1, Aurora2 (Homo sapiens, UniProt O14965); test: Aurora inhibition, standard coupled enzyme assay; assay type: biochemical; conditions: 40 μM ATP, 30° C.; read-out: Aurora2 Inhibitory Activity (IC50 class)
T1 sequence (O14965 1-403): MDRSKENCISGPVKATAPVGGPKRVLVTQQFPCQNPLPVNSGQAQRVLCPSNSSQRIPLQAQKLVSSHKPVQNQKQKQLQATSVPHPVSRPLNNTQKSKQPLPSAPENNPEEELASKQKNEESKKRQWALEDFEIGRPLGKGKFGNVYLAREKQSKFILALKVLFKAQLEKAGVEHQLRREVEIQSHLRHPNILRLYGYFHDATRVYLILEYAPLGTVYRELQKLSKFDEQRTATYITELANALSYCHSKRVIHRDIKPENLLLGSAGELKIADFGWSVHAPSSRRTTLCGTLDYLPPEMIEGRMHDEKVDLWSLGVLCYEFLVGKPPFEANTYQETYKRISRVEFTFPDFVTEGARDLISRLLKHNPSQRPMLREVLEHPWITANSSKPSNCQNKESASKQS
Method: Compounds were screened in the following manner for their ability to inhibit Aurora using a standard coupled enzyme assay. To an assay stock buffer solution containing 0.1M HEPES 7.5, 10 mM MgCl2, 25 mM NaCl, 2.5 mM phosphoenolpyruvate, 300 μM NADH, 30 μg/mL pyruvate kinase, 10 μg/mL lactate dehydrogenase, 40 μM ATP, and 800 μM peptide (LRRASLG, American Peptide, Sunnyvale, Calif.) was added a 30 μM solution of the compound in DMSO and the resulting mixture incubated at 30° C. for 10 min. The reaction was initiated by the addition of 10 μL of 70 nM Aurora and 1 mM DTT. The rates of reaction were obtained by monitoring absorbance at 340 nm over a 5 minute read time at 30° C. using a BioRad Ultramark plate reader (Hercules, Calif.). The IC50 was determined from the rate data as a function of inhibitor concentration.
The compound numbers correspond to the compound numbers in Table 1.

ERK2 = ERK2 (Homo sapiens, UniProt P28482); test: ERK2 inhibition, spectrophotometric coupled-enzyme assay; assay type: biochemical; conditions: activated ERK2 10 nM, 65 μM ATP, 30° C., pH 7.5; read-out: ERK2 Inhibitory Activity (Ki class)
Chain of ERK2 (P28482 whole entry): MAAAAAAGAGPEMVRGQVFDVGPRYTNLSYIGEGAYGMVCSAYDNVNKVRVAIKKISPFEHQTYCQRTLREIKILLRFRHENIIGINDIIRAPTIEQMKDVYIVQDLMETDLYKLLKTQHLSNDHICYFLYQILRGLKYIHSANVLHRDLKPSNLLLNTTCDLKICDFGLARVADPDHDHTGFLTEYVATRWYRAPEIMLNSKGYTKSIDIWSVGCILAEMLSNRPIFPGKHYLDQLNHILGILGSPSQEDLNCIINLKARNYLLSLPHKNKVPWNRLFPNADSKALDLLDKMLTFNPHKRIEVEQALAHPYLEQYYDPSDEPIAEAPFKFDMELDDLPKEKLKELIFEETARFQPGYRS

IC50 (Aurora2) [µM]	SMILES	Ki (ERK2) [µM]
5 to 10	O=C(NCc1cccnc1)c1cc(-c2[nH]ncc2-c2ccc3c(c2)OCO3)c[nH]1 [II-216]	–
< 5	O=C(NCCc1cnc[nH]1)c1cc(-c2[nH]ncc2-c2ccc(Cl)c(Cl)c2)c[nH]1 [II-254]	–
5 to 10	O=C(NOCc1ccccc1)c1cc(-c2[nH]ncc2-c2ccc(F)c(F)c2)c[nH]1 [II-85]	< 1
5 to 10	COc1ccc(-c2cn[nH]c2-c2c[nH]c(C(=O)NCc3ccncc3)c2)cc1OC [II-212]	–
> 10	O=C(NCC1CCCO1)c1cc(-c2[nH]ncc2-c2cc(F)ccc2F)c[nH]1 (stereo not shown) [II-188]	–
5 to 10	COc1ccc(-c2cn[nH]c2-c2c[nH]c(C(=O)NCC3CCCN(C(=O)OC(C)(C)C)C3)c2)cc1OC (stereo not shown) [II-259]	–
5 to 10	O=C(NCCc1cnc[nH]1)c1cc(-c2[nH]ncc2-c2ccc(Cl)cc2)c[nH]1 [II-252]	–
5 to 10	O=C(NCc1cccnc1)c1cc(-c2[nH]ncc2-c2ccc(Cl)cc2)c[nH]1 [II-214]	–
5 to 10	O=C(NCc1ccncc1)c1cc(-c2[nH]ncc2-c2ccc(Cl)cc2)c[nH]1 [II-211]	–
5 to 10	O=C(NOCc1ccccc1)c1cc(-c2[nH]ncc2-c2cccc(F)c2F)c[nH]1 [II-103]	< 1
> 10	CCN(C)C(=O)c1cc(-c2[nH]ncc2-c2ccc(OC)c(OC)c2)c[nH]1 [II-258]	–
< 5	CCN(C)C(=O)c1cc(-c2n[nH]cc2-c2cccc(Cl)c2)c[nH]1 [II-93]	–
5 to 10	COc1ccc(-c2cn[nH]c2-c2c[nH]c(C(=O)NCc3cccnc3)c2)cc1OC [II-215]	–
< 5	COc1ccc(-c2cn[nH]c2-c2c[nH]c(C(=O)N3CCOCC3)c2)cc1OC [II-228]	–
< 5	O=C(NOCc1ccccc1)c1cc(-c2[nH]ncc2-c2cccc(Cl)c2)c[nH]1 [II-57]	–
5 to 10	O=C(NCCc1cnc[nH]1)c1cc(-c2[nH]ncc2-c2cc(Cl)cc(Cl)c2)c[nH]1 [II-266]	–
5 to 10	O=C(NCc1ccncc1)c1cc(-c2[nH]ncc2-c2ccc3c(c2)OCO3)c[nH]1 [II-213]	–
5 to 10	O=C(NCCc1cnc[nH]1)c1cc(-c2[nH]ncc2-c2cccc(Cl)c2F)c[nH]1 [II-255]	–
–	CCC(NC(=O)c1cc(-c2[nH]ncc2-c2cccc(Br)c2)c[nH]1)c1ccccc1 (stereo not shown) [II-62]	< 1
< 5	O=C(NOCc1ccccc1)c1cc(-c2[nH]ncc2-c2cccc(Cl)c2F)c[nH]1 [II-82]	< 1
–	O=C(c1cc(-c2[nH]ncc2-c2ccc(F)c(Cl)c2)c[nH]1)N1CCOCC1 [II-107]	< 1
–	O=C(NCc1ccccc1)c1cc(-c2[nH]ncc2-c2cccc(O)c2)c[nH]1 [II-95]	< 1
–	CCOC(=O)c1cc(-c2[nH]ncc2-c2cccc([N+](=O)[O-])c2)c[nH]1 [II-148]	1 to 5
–	O=C(NCc1cccc(C(F)(F)F)c1)c1cc(-c2[nH]ncc2-c2cccc(Br)c2)c[nH]1 [II-47]	< 1

IC50 (Aurora2) [µM]	SMILES	Ki (ERK2) [µM]
–	O=C(c1cc(-c2[nH]ncc2-c2ccccc2)c[nH]1)N1CCOCC1 [II-19]	< 1
–	O=C(N[C@@H](CO)c1ccccc1)c1cc(-c2[nH]ncc2-c2cc(Cl)cc(Cl)c2)c[nH]1 [II-39]	< 1
–	CCOC(=O)c1cc(-c2[nH]ncc2-c2cccc(N)c2)c[nH]1 [II-9]	> 5
–	O=C(NCc1ccccc1)c1cc(-c2[nH]ncc2-c2ccc(F)cc2)c[nH]1 [II-111]	< 1
–	O=C(NOCc1ccccc1)c1cc(-c2[nH]ncc2-c2ccc(F)cc2)c[nH]1 [II-146]	1 to 5
–	O=C(NCc1ccncc1)c1cc(-c2[nH]ncc2-c2cccc([N+](=O)[O-])c2)c[nH]1 [II-289]	> 5
5 to 10	COc1ccc(-c2cn[nH]c2-c2c[nH]c(C(=O)NCC3CCCO3)c2)cc1OC (stereo not shown) [II-218]	–
–	O=C(c1cc(-c2[nH]ncc2-c2cccc(Br)c2)c[nH]1)N(CCCO)Cc1ccccc1 [II-139]	1 to 5
–	CN1CCN(C(=O)c2cc(-c3[nH]ncc3-c3ccccc3)c[nH]2)CC1 [II-21]	> 5
–	O=C(c1cc(-c2[nH]ncc2-c2ccc(Cl)c(Cl)c2)c[nH]1)N1CCOCC1 [II-127]	1 to 5
–	O=C(c1cc(-c2[nH]ncc2-c2cccc(Br)c2)c[nH]1)N(CCCO)Cc1ccncc1 [II-156]	1 to 5
–	CNC(=O)c1cc(-c2[nH]ncc2-c2cccc(Br)c2)c[nH]1 [II-152]	1 to 5
–	O=C(NCC1CCCO1)c1cc(-c2[nH]ncc2-c2ccc(F)c(Cl)c2)c[nH]1 (stereo not shown) [II-100]	< 1
–	Cc1cccc(-c2cn[nH]c2-c2c[nH]c(C(=O)NCc3ccncc3)c2)c1 [II-96]	< 1
–	O=C(c1cc(-c2[nH]ncc2-c2cccc(Br)c2)c[nH]1)N1CCC(O)(c2ccccc2)CC1 [II-102]	< 1
–	CC1CCN(C(=O)c2cc(-c3[nH]ncc3-c3cccc(Cl)c3)c[nH]2)CC1 [II-136]	1 to 5
–	NNC(=O)c1cc(-c2[nH]ncc2-c2cccc([N+](=O)[O-])c2)c[nH]1 [II-3]	< 1
> 10	COc1ccc(-c2cn[nH]c2-c2c[nH]c(C(=O)NOCc3ccccc3)c2)cc1OC [II-260]	–
< 5	O=C(NCc1ccncc1)c1cc(-c2[nH]ncc2-c2cccc(F)c2F)c[nH]1 [II-141]	1 to 5
–	O=C(c1cc(-c2[nH]ncc2-c2cccc(Br)c2)c[nH]1)N1CCc2ccccc2C1 [II-87]	< 1
–	CCOC(=O)c1cc(-c2[nH]ncc2-c2cccc(Cl)c2)c[nH]1 [II-151]	1 to 5
–	O=C(NCc1ccccc1)c1cc(-c2[nH]ncc2-c2ccc(Cl)cc2)c[nH]1 [II-92]	< 1
–	CCOC(=O)c1cc(-c2[nH]ncc2-c2ccc(Cl)cc2)c[nH]1 [II-7]	> 5
5 to 10	O=C(NCc1cccnc1)c1cc(-c2[nH]ncc2-c2cc(F)ccc2F)c[nH]1 [II-181]	–

SMILES	IC50 (Aurora2) [µM]	Ki (ERK2) [µM]
O=C(NCc1ccncc1)c1cc(-c2[nH]ncc2-c2cccc(Cl)c2F)c[nH]1 [II-115]	< 5	< 1
O=C(NCc1cccnc1)c1cc(-c2[nH]ncc2-c2cc(Cl)cc(Cl)c2)c[nH]1 [II-76]	< 5	< 1
O=C(NCCc1cnc[nH]1)c1cc(-c2[nH]ncc2-c2cccc(Cl)c2)c[nH]1 [II-142]	< 5	1 to 5
O=C(c1cc(-c2n[nH]cc2-c2cc(Cl)cc(Cl)c2)c[nH]1)N1CCOCC1 [II-112]	< 5	< 1
O=C(NCc1ccncc1)c1cc(-c2[nH]ncc2-c2cc(F)ccc2F)c[nH]1 [II-98]	5 to 10	< 1
O=C(NCc1ccncc1)c1cc(-c2[nH]ncc2-c2ccc(F)c(F)c2)c[nH]1 [II-88]	5 to 10	< 1
O=C(NCc1cccnc1)c1cc(-c2[nH]ncc2-c2ccc(F)c(Cl)c2)c[nH]1 [II-101]	< 5	< 1
CCN(C)C(=O)c1cc(-c2[nH]ncc2-c2ccc(F)c(Cl)c2)c[nH]1 [II-108]	5 to 10	< 1
CCN(C)C(=O)c1cc(-c2[nH]ncc2-c2cc(Cl)cc(Cl)c2)c[nH]1 [II-66]	5 to 10	< 1
O=C(NC(CO)c1ccccc1)c1cc(-c2[nH]ncc2-c2cccc(Br)c2)c[nH]1 (stereo not shown) [II-72]	5 to 10	< 1
CCN(C)C(=O)c1cc(-c2[nH]ncc2-c2ccc(Cl)c(Cl)c2)c[nH]1 [II-64]	< 5	< 1
O=C(NOCc1ccccc1)c1cc(-c2[nH]ncc2-c2cc(Cl)cc(Cl)c2)c[nH]1 [II-51]	5 to 10	< 1
O=C(NCc1cccnc1)c1cc(-c2[nH]ncc2-c2cccc(Cl)c2F)c[nH]1 [II-114]	< 5	< 1
O=C(NOCc1ccccc1)c1cc(-c2[nH]ncc2-c2cc(F)ccc2F)c[nH]1 [II-113]	< 5	< 1
O=C(NOCc1ccccc1)c1cc(-c2[nH]ncc2-c2ccc(Cl)c(Cl)c2)c[nH]1 [II-54]	5 to 10	< 1
O=C(NCC1CCCO1)c1cc(-c2[nH]ncc2-c2cccc(Cl)c2F)c[nH]1 (stereo not shown) [II-106]	5 to 10	< 1
O=C(NCc1ccncc1)c1cc(-c2[nH]ncc2-c2ccc(Cl)c(Cl)c2)c[nH]1 [II-61]	< 5	< 1
CCN(C)C(=O)c1cc(-c2[nH]ncc2-c2cccc(Cl)c2F)c[nH]1 [II-81]	< 5	< 1
O=C(NOCc1ccccc1)c1cc(-c2[nH]ncc2-c2ccc(F)c(Cl)c2)c[nH]1 [II-77]	< 5	< 1
O=C(NCc1ccncc1)c1cc(-c2[nH]ncc2-c2ccc(F)c(Cl)c2)c[nH]1 [II-70]	5 to 10	< 1
O=C(NOCc1ccccc1)c1cc(-c2[nH]ncc2-c2ccc(Cl)cc2)c[nH]1 [II-99]	< 5	< 1
